This is an account of results in US20050245399A1, “Pyrazole derivatives as herbicidal compositions containing them” (ISHIHARA SANGYO KAISHA, LTD., priority 2004, published 2005).

The first experiment has as its system soybean (Glycine max Merr.): GLXMA. Nature of the experiment: Test Example 1 pre-emergence herbicidal activity, GLXMA. The class given is in vivo. To be noted: Rate 63 g a.i./ha, visually observed 20th to 23rd day after application. The procedure, abridged: (§1)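 Pots of upland soil were sown, and one day later WP or EC formulations at set active-ingredient rates were sprayed pre-emergence in 500 L/ha water. Growth control scored visually 20–23 days after application, 0 (as untreated) to 100 (complete kill).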
Regarding `COc1c(Cl)cc(F)c(-c2nn(C)c(OC(F)F)c2Cl)c1NC(=O)c1cccc(Br)c1` [Compound 1-27], the “Pre-emergence Herbicidal Activity GLXMA (growth controlling degree)” value was found to be 20%.

The subject of a further experiment is redroot pigweed (Amaranthus retroflexus L.): AMARE. Put plainly: Test Example 1 pre-emergence herbicidal activity, AMARE. The format is in vivo. The conditions noted are these: Rate 63 g a.i./ha, visually observed 20th to 23rd day after application. The procedure, abridged: as §1
With `COc1c(Cl)cc(F)c(-c2nn(C)c(OC(F)F)c2Cl)c1NC(=O)c1cccc(Br)c1` [Compound 1-27], the “Pre-emergence Herbicidal Activity AMARE (growth controlling degree)” value is 100%.

The next experiment deals with prickly sida (Sida spinosa L.), SIDSP. Put plainly: Test Example 2 post-emergence (foliage treatment) herbicidal activity, SIDSP. The format is in vivo. To be noted: 63 g a.i./ha. The procedure, abridged:
(§2)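 Each species was evaluated for growth suppression by eye, 0% matching untreated and 100% meaning death, some 20 to 23 days after a single post-emergence foliar treatment applied in 500 L/ha of water carrying 0.1% (v/v) agricultural spreader.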
For the compound `COc1c(Cl)cc(F)c(-c2nn(C)c(OC(F)F)c2Cl)c1NC(=O)c1cccc(Br)c1` [Compound 1-27], the “growth controlling degree, SIDSP” value was determined as 70%.

The next experiment has as its system barnyardgrass (Echinochiloa oryzicola: ECHOR). Put plainly: Test Example 3 water application herbicidal activity (paddy), ECHOR. The class given is in vivo. To be noted: 63 g a.i./ha, water application under submerged condition at 0.5 leaf stage, visually observed 14th day after application; 0 = untreated control, 100 = complete kill. The procedure, abridged: (§3)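 Compound, as diluted wettable powder or emulsifiable concentrate, was pipetted into flood water at a set active-ingredient dose. Weeds were treated at 0.5-leaf stage after sowing or tuber planting; 2-leaf rice 4 days post-transplant. Control scored visually, 0 untreated to 100 complete kill, weeds day 14, rice day 21.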
Turning to `COc1c(Cl)cc(F)c(-c2nn(C)c(OC(F)F)c2Cl)c1NC(=O)c1cccc(Br)c1` [Compound 1-27], the “growth controlling degrees (%) ECHOR” value turned out to be 100%.

Another experiment deals with rice (Oryza sativa L.), ORYSA. Put plainly: Test Example 2 post-emergence (foliage treatment) herbicidal activity, ORYSA. The class given is in vivo. To be noted: 63 g a.i./ha. The procedure, abridged:
(§4)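 Plants grown in upland soil pots were sprayed on foliage at set leaf stages (ECHCG 1.1-2.1, DIGSA 1.0-2.0, AMARE 0.1-1.5, ORYSA 1.0-2). Formulated compound was applied at predetermined active-ingredient amounts in 500 L/ha water with 0.1% (v/v) spreader. Growth control (0–100%) was visually scored 20–23 days later.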
In the case of `COc1c(Cl)cc(F)c(-c2nn(C)c(OC(F)F)c2Cl)c1NC(=O)c1cccc(Br)c1` [Compound 1-27], the “growth controlling degree, ORYSA” value came to 80%.

Another experiment deals with velvetleaf (Abutilon theophrasti): ABUTH. Nature of the experiment: Test Example 1 pre-emergence herbicidal activity, ABUTH. The conditions noted are these: Rate 63 g a.i./ha, visually observed 20th to 23rd day after application. The format is in vivo. The procedure, abridged: as §1
Turning to `COc1c(Cl)cc(F)c(-c2nn(C)c(OC(F)F)c2Cl)c1NC(=O)c1cccc(Br)c1` [Compound 1-27], the “Pre-emergence Herbicidal Activity ABUTH (growth controlling degree)” value is recorded as 70%.

For a further experiment, the system named is japanese bulrush (Scirpus juncoides: SCPJO). Put plainly: Test Example 3 water application herbicidal activity (paddy), SCPJO. The class given is in vivo. The conditions noted are these: 63 g a.i./ha, water application under submerged condition at 0.5 leaf stage, visually observed 14th day after application; 0 = untreated control, 100 = complete kill. A digest of the protocol:
as §3
As for `COc1c(Cl)cc(F)c(-c2nn(C)c(OC(F)F)c2Cl)c1NC(=O)c1cccc(Br)c1` [Compound 1-27], the “growth controlling degrees (%) SCPJO” value is 70%.

In the next experiment the test system is crabgrass (Digitaria sanguinalis L.): DIGSA. Put plainly: Test Example 1 pre-emergence herbicidal activity, DIGSA. The conditions noted are these: Rate 63 g a.i./ha, visually observed 20th to 23rd day after application. The class given is in vivo. A digest of the protocol:
as §1
Consider `COc1c(Cl)cc(F)c(-c2nn(C)c(OC(F)F)c2Cl)c1NC(=O)c1cccc(Br)c1` [Compound 1-27], for which the “Pre-emergence Herbicidal Activity DIGSP (growth controlling degree)” value was found to be 100%.

Another experiment relates to velvetleaf (Abutilon theophrasti), ABUTH. Put plainly: Test Example 2 post-emergence (foliage treatment) herbicidal activity, ABUTH. The format is in vivo. The conditions noted are these: 63 g a.i./ha. A digest of the protocol: as §2
For `COc1c(Cl)cc(F)c(-c2nn(C)c(OC(F)F)c2Cl)c1NC(=O)c1cccc(Br)c1` [Compound 1-27], the “growth controlling degree, ABUTH” value came out at 100%.

A further experiment deals with corn (Zea mays L.), ZEAMX. Nature of the experiment: Test Example 2 post-emergence (foliage treatment) herbicidal activity, ZEAMX. The format is in vivo. The conditions noted are these: 63 g a.i./ha. The procedure, abridged: as §2
As to `COc1c(Cl)cc(F)c(-c2nn(C)c(OC(F)F)c2Cl)c1NC(=O)c1cccc(Br)c1` [Compound 1-27], the “growth controlling degree, ZEAMX” value is on record as 60%.

A further experiment has as its system wheat (Triticum aestivum L.): TRZAX. Put plainly: Test Example 1 pre-emergence herbicidal activity, TRZAX. The format is in vivo. To be noted: Rate 63 g a.i./ha, visually observed 20th to 23rd day after application. A digest of the protocol: as §1
In the case of `COc1c(Cl)cc(F)c(-c2nn(C)c(OC(F)F)c2Cl)c1NC(=O)c1cccc(Br)c1` [Compound 1-27], the “Pre-emergence Herbicidal Activity TRZAX (growth controlling degree)” value was 0%.

The subject of a further experiment is green foxtail (Setaria viridis L.): SETVI. Put plainly: Test Example 1 pre-emergence herbicidal activity, SETVI. The class given is in vivo. To be noted: Rate 63 g a.i./ha, visually observed 20th to 23rd day after application. The procedure, abridged:
as §1
Take `COc1c(Cl)cc(F)c(-c2nn(C)c(OC(F)F)c2Cl)c1NC(=O)c1cccc(Br)c1` [Compound 1-27]: the “Pre-emergence Herbicidal Activity SETVI (growth controlling degree)” value was 80%.

The subject of a further experiment is barnyardgrass (Echinochloa crus-galli L.): ECHCG. Nature of the experiment: Test Example 1 pre-emergence herbicidal activity, ECHCG. The format is in vivo. The conditions noted are these: Rate 63 g a.i./ha, visually observed 20th to 23rd day after application. A digest of the protocol:
as §1
In the case of `COc1c(Cl)cc(F)c(-c2nn(C)c(OC(F)F)c2Cl)c1NC(=O)c1cccc(Br)c1` [Compound 1-27], the “Pre-emergence Herbicidal Activity ECHCG (growth controlling degree)” value is 30%.

Another experiment concerns barnyardgrass (Echinochloa crus-galli L.), ECHCG. Nature of the experiment: Test Example 2 post-emergence (foliage treatment) herbicidal activity, ECHCG. The class given is in vivo. To be noted: 63 g a.i./ha. A digest of the protocol: as §4
With `COc1c(Cl)cc(F)c(-c2nn(C)c(OC(F)F)c2Cl)c1NC(=O)c1cccc(Br)c1` [Compound 1-27], the “growth controlling degree, ECHCO” value was 100%.

The test system of a further experiment is crabgrass (Digitaria sanguinalis L.), DIGSA. Put plainly: Test Example 2 post-emergence (foliage treatment) herbicidal activity, DIGSA. The class given is in vivo. The conditions noted are these: 63 g a.i./ha. The procedure, abridged: as §4
As for `COc1c(Cl)cc(F)c(-c2nn(C)c(OC(F)F)c2Cl)c1NC(=O)c1cccc(Br)c1` [Compound 1-27], the “growth controlling degree, DIGSP” value amounted to 100%.

Another experiment has as its system wheat (Triticum aestivum L.), TRZAX. Put plainly: Test Example 2 post-emergence (foliage treatment) herbicidal activity, TRZAX. The format is in vivo. The conditions noted are these: 63 g a.i./ha. A digest of the protocol: as §2
For `COc1c(Cl)cc(F)c(-c2nn(C)c(OC(F)F)c2Cl)c1NC(=O)c1cccc(Br)c1` [Compound 1-27], the “growth controlling degree, TRZAX” value was 30%.

For a further experiment, the system named is rice (Oryza sativa L.: ORYSA). Put plainly: Test Example 3 water application herbicidal activity (paddy), transplanted rice ORYSA. The class given is in vivo. To be noted: 63 g a.i./ha, water application 4th day after transplantation of 2 leaf stage rice, visually observed 21st day after application; 0 = untreated control, 100 = complete kill. The procedure, abridged: as §3
Take `COc1c(Cl)cc(F)c(-c2nn(C)c(OC(F)F)c2Cl)c1NC(=O)c1cccc(Br)c1` [Compound 1-27]: the “growth controlling degrees (%) ORYSA” value was found to be 50%.

The subject of another experiment is rice (Oryza sativa L.): ORYSA. Nature of the experiment: Test Example 1 pre-emergence herbicidal activity, ORYSA. To be noted: Rate 63 g a.i./ha, visually observed 20th to 23rd day after application. The format is in vivo. A digest of the protocol: as §1
On to `COc1c(Cl)cc(F)c(-c2nn(C)c(OC(F)F)c2Cl)c1NC(=O)c1cccc(Br)c1` [Compound 1-27], for which the “Pre-emergence Herbicidal Activity ORYSA (growth controlling degree)” value came out at 20%.

A further experiment concerns prickly sida (Sida spinosa L.): SEDSP. Nature of the experiment: Test Example 1 pre-emergence herbicidal activity, SIDSP. The class given is in vivo. To be noted: Rate 63 g a.i./ha, visually observed 20th to 23rd day after application. The procedure, abridged: as §1
As for `COc1c(Cl)cc(F)c(-c2nn(C)c(OC(F)F)c2Cl)c1NC(=O)c1cccc(Br)c1` [Compound 1-27], the “Pre-emergence Herbicidal Activity SIDSP (growth controlling degree)” value was determined as 80%.

The next experiment relates to japanese ribbon wapato (Sagittaria pygmaea: SA GPY). Nature of the experiment: Test Example 3 water application herbicidal activity (paddy), SAGPY. The format is in vivo. The conditions noted are these: 63 g a.i./ha, water application under submerged condition, tubers planted, visually observed 14th day after application; 0 = untreated control, 100 = complete kill. The procedure, abridged:
as §3
Regarding `COc1c(Cl)cc(F)c(-c2nn(C)c(OC(F)F)c2Cl)c1NC(=O)c1cccc(Br)c1` [Compound 1-27], the “growth controlling degrees (%) SAGPY” value is on record as 98%.

The test system of another experiment is soybean (Glycine max Merr.), GLXMA. Nature of the experiment: Test Example 2 post-emergence (foliage treatment) herbicidal activity, GLXMA. The format is in vivo. The conditions noted are these: 63 g a.i./ha. A digest of the protocol:
as §2
On to `COc1c(Cl)cc(F)c(-c2nn(C)c(OC(F)F)c2Cl)c1NC(=O)c1cccc(Br)c1` [Compound 1-27], for which the “growth controlling degree, GLXMA” value was found to be 70%.

Another experiment deals with redroot pigweed (Amaranthus retroflexus L.), AMARE. Put plainly: Test Example 2 post-emergence (foliage treatment) herbicidal activity, AMARE. The format is in vivo. The conditions noted are these: 63 g a.i./ha. A digest of the protocol: as §4
As for `COc1c(Cl)cc(F)c(-c2nn(C)c(OC(F)F)c2Cl)c1NC(=O)c1cccc(Br)c1` [Compound 1-27], the “growth controlling degree, AMARE” value is listed as 100%.

Another experiment relates to green foxtail (Setaria viridis L.), SETVI. Put plainly: Test Example 2 post-emergence (foliage treatment) herbicidal activity, SETVI. The class given is in vivo. The conditions noted are these: 63 g a.i./ha. A digest of the protocol:
as §2
Take `COc1c(Cl)cc(F)c(-c2nn(C)c(OC(F)F)c2Cl)c1NC(=O)c1cccc(Br)c1` [Compound 1-27]: the “growth controlling degree, SETVI” value amounted to 100%.

The next experiment relates to corn (Zea mays L.): ZEAMX. Put plainly: Test Example 1 pre-emergence herbicidal activity, ZEAMX. The class given is in vivo. The conditions noted are these: Rate 63 g a.i./ha, visually observed 20th to 23rd day after application. The procedure, abridged: as §1
Take `COc1c(Cl)cc(F)c(-c2nn(C)c(OC(F)F)c2Cl)c1NC(=O)c1cccc(Br)c1` [Compound 1-27]: the “Pre-emergence Herbicidal Activity ZEAMX (growth controlling degree)” value came to 0%.
